According to patent US20030162727A1, “Use of cyp1b1inhibitors for treating cancer” (priority 2000, published 2003):
Where “and” joins values, the source holds several entries; their conditions need not be identical. Equal entries are not always repeated.

Assays:
CYP1B1 [1] = biological target: T1, CYP1B1 (Homo sapiens, UniProt Q16678); test: in vitro
T1 sequence (Q16678 1-543): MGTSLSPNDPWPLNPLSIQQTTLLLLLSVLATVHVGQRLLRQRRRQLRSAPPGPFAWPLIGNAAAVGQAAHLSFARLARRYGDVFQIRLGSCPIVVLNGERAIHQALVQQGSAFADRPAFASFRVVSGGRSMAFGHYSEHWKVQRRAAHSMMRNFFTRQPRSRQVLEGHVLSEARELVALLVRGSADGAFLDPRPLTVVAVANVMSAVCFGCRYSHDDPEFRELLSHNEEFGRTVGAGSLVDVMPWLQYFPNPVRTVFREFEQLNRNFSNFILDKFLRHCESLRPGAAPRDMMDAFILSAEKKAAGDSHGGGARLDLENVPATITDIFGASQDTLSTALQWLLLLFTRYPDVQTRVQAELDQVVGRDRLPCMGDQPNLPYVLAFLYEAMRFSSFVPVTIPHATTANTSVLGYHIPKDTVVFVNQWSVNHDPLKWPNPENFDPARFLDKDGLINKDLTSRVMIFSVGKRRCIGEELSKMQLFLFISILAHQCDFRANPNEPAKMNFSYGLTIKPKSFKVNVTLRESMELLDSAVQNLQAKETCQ
Excerpt: Recent immunohistochemical analysis of P4501B1 protein in a variety of solid tumours identified tumour-specific enzyme expression (Murray et al, 1998). This provides a mechanism of resistance to currently used anticancer agents, as well as, an approach for targeted prodrug therapy. 7-ethoxyresorufin deethylase activity (EROD) was used to define interactions with cytochrome 1B1 (CYP1B1). 7-Ethoxyresorufin is a known substrate for P4501B1. […] For this purpose, inhibition constants (Ki) have been calculated using in vitro kinetics from CYP1B1-mediated EROD activity. EROD activity and assay has been described previously by various authors (Lubet et al., 1985, Arch. Biochem. Biophys. 238: pp 43-48; Gentest Corporation, 6 Henshaw St., Woburn, Mass. 01801 USA, data sheet given with CYP1B1, catalogue number P220). 7-Ethoxyresorufin is enzymatically deethylated to a product called resorufin. The appearance of resorufin was monitored by a fluorescence detector set at 550 nm and 582 nm (excitation and emission wavelengths). […] Incubations contained: phosphate buffer at pH 7.4, 7-ethoxyresorufin, CYP1B1 Supersomes from Gentest Co (catalogue number P220) and nicotine adenine dinucleotide phosphate (NADP) as cofactor.
The metabolism of anti-cancer drugs by CYP1B1 was studied using an inhibition of EROD assay. […] Ki values were determined by the Dixon's replots: see Table 2.

CYP1A1 = biological target: T2, CYP1A1 (Homo sapiens, UniProt P04798); test: Flutamide 2-hydroxylation and inhibition, CYP1A1 compared with CYP1B1; format: biochemical; conditions: 2-hydroxylation of flutamide; times higher than CYP1B1
T2 sequence (P04798 1-512): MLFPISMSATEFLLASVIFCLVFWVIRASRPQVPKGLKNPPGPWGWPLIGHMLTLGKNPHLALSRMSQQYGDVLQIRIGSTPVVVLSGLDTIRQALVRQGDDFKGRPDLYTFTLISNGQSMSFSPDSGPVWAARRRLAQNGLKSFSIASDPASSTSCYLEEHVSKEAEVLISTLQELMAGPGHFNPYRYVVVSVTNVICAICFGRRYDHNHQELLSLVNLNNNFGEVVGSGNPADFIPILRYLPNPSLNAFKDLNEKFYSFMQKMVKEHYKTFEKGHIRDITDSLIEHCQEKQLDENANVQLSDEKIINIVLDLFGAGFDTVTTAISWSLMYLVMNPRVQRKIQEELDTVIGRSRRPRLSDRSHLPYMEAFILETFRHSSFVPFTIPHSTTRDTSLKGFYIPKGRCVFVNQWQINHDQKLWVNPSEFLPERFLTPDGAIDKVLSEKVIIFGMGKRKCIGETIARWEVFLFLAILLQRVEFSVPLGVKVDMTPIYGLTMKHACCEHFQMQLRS

[2] = tested on: CYP1B1, CYP1A1, and CYP1A2
CYP1B1, CYP1A1, CYP1A2 = test: in vitro; conditions: human
CYP1B1 [3] = biological target: T1, CYP1B1; test: Biotransformation studies with CYP1B1; conditions: metabolites produced by CYP1B1 incubation but not control incubations

CC(C)C(=O)Nc1ccc([N+](=O)[O-])c(C(F)(F)F)c1 [Flutamide]
Inhibition Type (CYP1B1 [1]): competitive
Ki (CYP1B1 [1]; Ki Values, Dixon re-plots of EROD activity, mean): 1 µM and 0.99 µM
inhibition at 100 μM (CYP1B1 [1]; human, pH 7.4): 53 to 99%
Km for CYP1A1 relative to CYP1B1 (CYP1A1): 5 times
inhibition type for CYP1B1, CYP1A1, and CYP1A2 activities [2]: competitive
Ki (CYP1B1, CYP1A1, CYP1A2): 1 to 10.3 µM
biotransformation by CYP1B1 (CYP1B1 [3]): biotransformed by CYP1B1
